Measured values published in patent publication US6472348B1, “Pyridone derivatives and herbicides” (Kumiai Chemical Industry Co., Ltd., priority 1996, dated 2002).

Columns and labels:
Assay type in all cases: in vivo
[1] = system: pale smartweed (Po); assay: Test Example 5: crop plant selectivity by upland field soil treatment (wheat), herbicidal effects; parameters: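 grade of growth control; 5 = at least 90%; 4 = 70 to 90%; 3 = 50 to 70%; 2 = 30 to 50%; 1 = 10 to 30%; 0 = under 10%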; settings: 21st day after application
Procedure, shortened: (§1)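 Upland soil treatment test: crop and weed species sown in sand-filled pots and covered with soil before compound application. Visual scoring of weed control and wheat injury 21 days post-application, plants kept in a greenhouse, using a standard rating scale.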

[2] = system: China jute (Ab); assay: as above; parameters: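 grade of growth control; 5 = at least 90%; 4 = 70 to 90%; 3 = 50 to 70%; 2 = 30 to 50%; 1 = 10 to 30%; 0 = under 10%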; settings: 21st day after application
Procedure, shortened: as §1

[3] = system: slender amaranth (Am); assay: as above; parameters: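 grade of growth control; 5 = at least 90%; 4 = 70 to 90%; 3 = 50 to 70%; 2 = 30 to 50%; 1 = 10 to 30%; 0 = under 10%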; settings: 21st day after application
Procedure, shortened: as §1

[4] = system: green foxtail (Se); assay: as above; parameters: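 grade of growth control; 5 = at least 90%; 4 = 70 to 90%; 3 = 50 to 70%; 2 = 30 to 50%; 1 = 10 to 30%; 0 = under 10%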; settings: 21st day after application
Procedure, shortened: as §1

[5] = system: pale smartweed (Po); assay: Test Example 2: herbicidal effects by upland field soil treatment; settings: 100 g of the active ingredient per 10 ares;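 also: grade of growth control; 5 = at least 90%; 4 = 70 to 90%; 3 = 50 to 70%; 2 = 30 to 50%; 1 = 10 to 30%; 0 = under 10%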
From the text: (§2) (Test on Herbicidal Effects by Upland Field Soil Treatment)

[6] = system: slender amaranth (Am); assay: as above; settings: 100 g of the active ingredient per 10 ares
From the text: as §2

[7] = system: barnyardgrass (Ec); assay: as above; settings: 100 g of the active ingredient per 10 ares;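 also: grade of growth control; 5 = at least 90%; 4 = 70 to 90%; 3 = 50 to 70%; 2 = 30 to 50%; 1 = 10 to 30%; 0 = under 10%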
From the text: as §2

[8] = system: Digitaria ciliaris (Di); assay: as above; settings: 100 g of the active ingredient per 10 ares;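 also: grade of growth control; 5 = at least 90%; 4 = 70 to 90%; 3 = 50 to 70%; 2 = 30 to 50%; 1 = 10 to 30%; 0 = under 10%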
From the text: as §2

[9] = system: rice flatsedge (Ci); assay: as above; settings: 100 g of the active ingredient per 10 ares;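 also: grade of growth control; 5 = at least 90%; 4 = 70 to 90%; 3 = 50 to 70%; 2 = 30 to 50%; 1 = 10 to 30%; 0 = under 10%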
From the text: as §2

[10] = system: common lambsquarters (Ch); assay: as above; settings: 100 g of the active ingredient per 10 ares
From the text: as §2

[11] = evaluated on the 21st day after application
[12] = 21st day after the application, index 0-5 of Table 47

Compound	Herbicidal effects Po ([1]; dose 1.6 g ai/10a)	Herbicidal effects Ab ([2]; dose 1.6 g ai/10a)	Herbicidal effects Am ([3]; dose 1.6 g ai/10a)	Herbicidal effects Se ([4]; dose 1.6 g ai/10a)	Herbicidal effects Po [5, 11]	Herbicidal effects Am [6, 11]	Herbicidal effects Ec [7, 11]	Herbicidal effects Di [8, 11]	Herbicidal effects Ci [9, 11]	Herbicidal effects Ch [10, 11]	Herbicidal effects Po ([1]; dose 6.3 g ai/10a)	Herbicidal effects Ab ([2]; dose 6.3 g ai/10a)	Herbicidal effects Am ([3]; dose 6.3 g ai/10a)	Herbicidal effects Se ([4]; dose 6.3 g ai/10a)	Herbicidal effects Po [5, 12]	Herbicidal effects Am [6, 12]	Herbicidal effects Ec [7, 12]	Herbicidal effects Di [8, 12]	Herbicidal effects Ci [9, 12]	Herbicidal effects Ch [10, 12]
C=CCN1C(=O)COc2cc(F)c(-c3ccc(C(F)(F)F)n(C)c3=O)cc21 [Compound 2-7]	5	5	5	5	5	5	5	5	5	5	–	–	–	–	–	–	–	–	–	–
C#CCN1C(=O)COc2cc(Cl)c(-c3ccc(C(F)(F)F)n(C)c3=O)cc21 [Compound 2-25]	5	5	5	5	5	5	5	5	5	5	5	5	5	5	–	–	–	–	–	–
C=CCN1C(=O)COc2cc(Cl)c(-c3ccc(C(F)(F)F)n(C)c3=O)cc21 [Compound 2-26]	–	–	–	–	5	5	5	5	5	5	5	5	5	5	–	–	–	–	–	–
Cc1cc2c(-c3ccc(C(F)(F)F)n(C)c3=O)c(F)cc(Cl)c2o1 [Compound 4-1]	5	5	5	5	5	5	5	5	5	5	5	5	5	5	–	–	–	–	–	–
CCc1cc2c(-c3ccc(C(F)(F)F)n(C)c3=O)c(F)cc(Cl)c2o1 [Compound 4-2]	5	5	5	5	5	5	5	5	5	5	–	–	–	–	–	–	–	–	–	–
CCCc1cc2c(-c3ccc(C(F)(F)F)n(C)c3=O)c(F)cc(Cl)c2o1 [Compound 4-3]	–	–	–	–	5	5	5	5	5	5	5	5	5	5	–	–	–	–	–	–
CCc1cc2c(Cl)cc(F)c(-c3ccc(C(F)(F)F)n(C)c3=O)c2o1 [Compound 5-2]	–	–	–	–	5	5	5	5	5	5	5	5	5	5	–	–	–	–	–	–
C#CCN1C(=O)COc2cc(F)c(-c3cn(C)c(C(F)(F)F)cc3=O)cc21 [Compound 7-1]	–	–	–	–	5	5	5	5	5	5	5	5	5	5	–	–	–	–	–	–
CON=Cc1cc(-c2ccc(C(F)(F)F)n(C)c2=O)c(F)cc1Cl [Compound No. 1-72, 5-(1-methyl-6-trifluoromethyl-2(1H)-pyridon-3-yl)-2-chloro-4-fluorobenzaldehydeoxime-O-methyl ether]	5	5	5	5	–	–	–	–	–	–	–	–	–	–	5	5	5	5	5	5
CCCC(=O)c1cc(-c2ccc(C(F)(F)F)n(C)c2=O)c(F)cc1Cl [Compound No. 1-194, 3-[4-chloro-2-fluoro-5-(1-oxobutyl)phenyl]-1-methyl-6-trifluoromethyl-2(1H)-pyridone]	–	–	–	–	5	5	5	5	5	5	5	5	5	5	–	–	–	–	–	–
C#CCN1C(=O)COc2cc(F)c(-c3ccc(C(F)(F)F)n(C)c3=O)cc21 [Compound No. 2-1, 3-[7-fluoro-2,3-dihydro-4-(2-propynyl)-1,4-benzoxazin-3-on-6-yl]-1-methyl-6-trifluoromethyl-2(1H)-pyridone]	5	5	5	5	5	5	5	5	5	5	–	–	–	–	–	–	–	–	–	–
C#CCn1c(=O)sc2cc(F)c(-c3ccc(C(F)(F)F)n(C)c3=O)cc21 [Compound No. 3-1, 3-[6-fluoro-3-(2-propynyl)-benzothiazolin-2-on-5-yl]-1-methyl-6-trifluoromethyl-2(1H)-pyridone]	–	–	–	–	5	5	5	5	5	5	5	5	5	5	–	–	–	–	–	–
COCc1cc2c(-c3ccc(C(F)(F)F)n(C)c3=O)c(F)cc(Cl)c2o1 [Compound No. 4-4, 3-(7-chloro-5-fluoro-2-methoxymethylbenzofuran-4-yl)-1-methyl-6-trifluoromethyl-2-(1H)-pyridone]	5	5	5	5	5	5	5	5	5	5	–	–	–	–	–	–	–	–	–	–
Cn1c(C(F)(F)F)ccc(-c2c(F)cc(Cl)c3oc(CO)cc23)c1=O [Compound No. 4-5, 3-(7-chloro-5-fluoro-2-hydroxymethylbenzofuran-4-yl)-1-methyl-6-trifluoromethyl-2-(1H)-pyridone]	–	–	–	–	5	5	5	5	5	5	5	5	5	5	–	–	–	–	–	–
Cn1c(C(F)(F)F)ccc(-c2c(F)cc(Cl)c3occc23)c1=O [Compound No. 4-28, 3-(7-chloro-5-fluorobenzofuran-4-yl)-1-methyl-6-trifluoromethyl-2-(1H)-pyridone]	–	–	–	–	5	5	4	5	5	5	5	5	5	5	–	–	–	–	–	–
Cn1cc(-c2cc(Oc3ccccc3)c(Cl)cc2F)c(=O)cc1C(F)(F)F [Compound No. 6-19, 5-(4-chloro-2-fluoro-5-phenoxyphenyl)-1-methyl-2-trifluoromethyl-4(1H)-pyridone]	5	3	5	5	5	5	5	5	5	5	5	5	5	5	–	–	–	–	–	–
